Measured values: patent US20260027116A1, “Methods of Treating Chronic Graft-Versus-Host Disease Following Allogeneic Hematopoietic Stem Cell Transplantation” (Kadmon Corporation, LLC, priority 2022, published 2026)

System: patients with cGVHD

CC(C)NC(=O)COc1cccc(-c2nc(Nc3ccc4[nH]ncc4c3)c3ccccc3n2)c1 [Belumosudil, 2-{3-[4-(1H-indazol-5-ylamino)-2-quinazolinyl]phenoxy}-N-(propan-2-yl) acetamide]
(14.29%): All-Cause Mortality, % (Cohort 3 400 mg QD)
2: Urinary tract infection: # Events (Cohort 2 200 mg BID) | Vision blurred: # Events (Cohort 2 200 mg BID) | Weight increased: # Events (Cohort 2 200 mg BID) | Alanine aminotransferase increased: # Events (Cohort 3 400 mg QD) | Blepharitis: # Events (Cohort 3 400 mg QD)
3/21 (14.29%): Anxiety: Affected/At Risk (%) (Cohort 3 400 mg QD)
6: Abdominal pain: # Events (Cohort 3 400 mg QD) | Acute kidney injury: # Events (Cohort 3 400 mg QD) | Arthralgia: # Events (Cohort 3 400 mg QD)
2/16 (12.5%): Urinary tract infection: Affected/At Risk (%) (Cohort 2 200 mg BID) | Vision blurred: Affected/At Risk (%) (Cohort 2 200 mg BID)
9 (43): All grade Fatigue, No. (%) (Cohort 3 400 mg QD)
1/16 (6.25%): Urinary retention: Affected/At Risk (%) (Cohort 2 200 mg BID) | Urinary tract pain: Affected/At Risk (%) (Cohort 2 200 mg BID) | Urine output decreased: Affected/At Risk (%) (Cohort 2 200 mg BID) | Vascular access complication: Affected/At Risk (%) (Cohort 2 200 mg BID) | Weight increased: Affected/At Risk (%) (Cohort 2 200 mg BID)
5/21 (23.81%): Arthralgia: Affected/At Risk (%) (Cohort 3 400 mg QD)
8 (38): All grade Nausea, No. (%) (Cohort 3 400 mg QD)
0: Vertigo: # Events (Cohort 2 200 mg BID) | Weight decreased: # Events (Cohort 2 200 mg BID) | White blood cell count decreased: # Events (Cohort 2 200 mg BID) | Abdominal pain upper: # Events (Cohort 3 400 mg QD) | Acute respiratory distress syndrome: # Events (Cohort 3 400 mg QD) | Adrenal insufficiency: # Events (Cohort 3 400 mg QD) | Anaemia: # Events (Cohort 3 400 mg QD) | Anal incontinence: # Events (Cohort 3 400 mg QD) | Asthenia: # Events (Cohort 3 400 mg QD) | Atelectasis: # Events (Cohort 3 400 mg QD) | Balance disorder: # Events (Cohort 3 400 mg QD) | Basal cell carcinoma: # Events (Cohort 3 400 mg QD) | Benign prostatic hyperplasia: # Events (Cohort 3 400 mg QD) | Blood alkaline phosphatase increased: # Events (Cohort 3 400 mg QD) | Blood chloride decreased: # Events (Cohort 3 400 mg QD) | Blood creatine increased: # Events (Cohort 3 400 mg QD)
2 (10): All grade ALT/AST increased, No. (%) (Cohort 3 400 mg QD)
3/21: All-Cause Mortality, Affected/At Risk (Cohort 3 400 mg QD)
4 (19): All grade Hypertension, No. (%) (Cohort 3 400 mg QD)
3/16 (18.75%): Vomiting: Affected/At Risk (%) (Cohort 2 200 mg BID)
1: Urinary tract pain: # Events (Cohort 2 200 mg BID) | Urine output decreased: # Events (Cohort 2 200 mg BID) | Vascular access complication: # Events (Cohort 2 200 mg BID) | Abdominal distension: # Events (Cohort 3 400 mg QD) | Actinic keratosis: # Events (Cohort 3 400 mg QD) | Aspartate aminotransferase increased: # Events (Cohort 3 400 mg QD) | Back pain: # Events (Cohort 3 400 mg QD) | Blister: # Events (Cohort 3 400 mg QD) | Blood cholesterol increased: # Events (Cohort 3 400 mg QD)
6 (29): All grade Headache, No. (%) (Cohort 3 400 mg QD) | All grade Peripheral edema, No. (%) (Cohort 3 400 mg QD)
1/21 (4.76%): Abdominal distension: Affected/At Risk (%) (Cohort 3 400 mg QD) | Actinic keratosis: Affected/At Risk (%) (Cohort 3 400 mg QD) | Aspartate aminotransferase increased: Affected/At Risk (%) (Cohort 3 400 mg QD) | Back pain: Affected/At Risk (%) (Cohort 3 400 mg QD) | Blepharitis: Affected/At Risk (%) (Cohort 3 400 mg QD) | Blister: Affected/At Risk (%) (Cohort 3 400 mg QD) | Blood cholesterol increased: Affected/At Risk (%) (Cohort 3 400 mg QD)
16 (100): Any AE, No. (%) (Cohort 3 400 mg QD)
4/21 (19.05%): Abdominal pain: Affected/At Risk (%) (Cohort 3 400 mg QD)
0/16 (0%): Vertigo: Affected/At Risk (%) (Cohort 2 200 mg BID) | Weight decreased: Affected/At Risk (%) (Cohort 2 200 mg BID) | White blood cell count decreased: Affected/At Risk (%) (Cohort 2 200 mg BID)
2/21 (9.52%): Acute kidney injury: Affected/At Risk (%) (Cohort 3 400 mg QD) | Alanine aminotransferase increased: Affected/At Risk (%) (Cohort 3 400 mg QD)
7 (33): All grade Cough, No. (%) (Cohort 3 400 mg QD) | All grade Diarrhea, No. (%) (Cohort 3 400 mg QD) | All grade Dyspnea, No. (%) (Cohort 3 400 mg QD) | All grade URI, No. (%) (Cohort 3 400 mg QD)
0/21 (0%): Abdominal pain upper: Affected/At Risk (%) (Cohort 3 400 mg QD) | Acute respiratory distress syndrome: Affected/At Risk (%) (Cohort 3 400 mg QD) | Adrenal insufficiency: Affected/At Risk (%) (Cohort 3 400 mg QD) | Anaemia: Affected/At Risk (%) (Cohort 3 400 mg QD) | Anal incontinence: Affected/At Risk (%) (Cohort 3 400 mg QD) | Asthenia: Affected/At Risk (%) (Cohort 3 400 mg QD) | Atelectasis: Affected/At Risk (%) (Cohort 3 400 mg QD) | Balance disorder: Affected/At Risk (%) (Cohort 3 400 mg QD) | Basal cell carcinoma: Affected/At Risk (%) (Cohort 3 400 mg QD) | Benign prostatic hyperplasia: Affected/At Risk (%) (Cohort 3 400 mg QD) | Blood alkaline phosphatase increased: Affected/At Risk (%) (Cohort 3 400 mg QD) | Blood chloride decreased: Affected/At Risk (%) (Cohort 3 400 mg QD) | Blood creatine increased: Affected/At Risk (%) (Cohort 3 400 mg QD)
3: Vomiting: # Events (Cohort 2 200 mg BID) | Anxiety: # Events (Cohort 3 400 mg QD)
